Here are results for 15 compounds from PubChem BioAssay (NCI).

Common to all, as to test: DTP human tumour cell line panel, 48 h
Test [1] deals with DU-145 prostate.
Test [2] has as its system SW-620 colon.
Test [3] deals with A549 NSCLC.
The subject of test [4] is NCI-H23 lung.
In test [5] the test system is SK-MEL-2 melanoma.
Test [6] concerns SN12C renal.
In test [7] the test system is RPMI-8226 leukemia.
For test [8], the system named is OVCAR-4 ovarian.
Test [9] deals with SF-539 CNS.
The test system of test [10] is NCI-H522 lung.

For orientation: TGI means the concentration giving total growth inhibition. Low values mean greater sensitivity of the cells, high ones lower sensitivity of the cells.

Structures are written as SMILES.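 Results reflect a 48-hour exposure of cells in 96-well plates to compound at five concentrations. TGI denotes the concentration required for complete inhibition of growth.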

Regarding `CC1SCCc2nc3ccccc3n21` (centres undefined), the TGI in [1], in test [2], in test [3], in [4], in [5] and in [6] was greater than 100 µM throughout. The TGI in test [7], in test [8] and in test [9] was greater than 100 µM throughout.

Turning to `COc1ccc(-c2cc(=O)c3cc(OC)c(OC)cc3[nH]2)cc1OC`, the TGI in test [1], in test [2], in test [10], in test [3], in test [4] and in test [6] was greater than 100 µM in each case. The TGI in [7], in test [8] and in [9] was greater than 100 µM throughout.

Turning to `CC(C)[C@H](NC(=O)OCc1ccccc1)C(=O)N[C@H](/C=C/C(=O)OC(C)(C)C)CO`, the TGI in test [1], in test [2], in test [10], in [3], in test [4] and in [5] was greater than 100 µM each time. Also, the TGI in test [6], in [8] and in [9] was greater than 100 µM each time.

Consider `COc1ccc(-c2cc(-c3ccc(Nc4ccnc5cc(C(F)(F)F)ccc45)cc3)nc(N)c2C#N)c2ccccc12`, for which the TGI in test [1], in test [2], in [3], in test [4], in [5] and in test [7] was greater than 100 µM each time. Also, the TGI in [8] and in test [9] was greater than 100 µM in each case.

As for `C/C(=C\CNc1ncnc2c1ncn2CCC#N)CO`, the TGI in test [1], in [2], in test [10], in test [3], in [4] and in [6] was greater than 100 µM each time. Besides, the TGI in [7], in test [8] and in test [9] was greater than 100 µM throughout.

As for `CO/C(N)=C(\C#N)N=Cc1cccs1`, the TGI in test [1] was greater than 100 µM; in test [2], greater than 100 µM; in test [10], 79.6 µM; in test [3], greater than 100 µM; in [4], greater than 100 µM; in test [5], greater than 100 µM. Further, the TGI in [6], in test [8] and in [9] was greater than 100 µM in each case.

In the case of `CC(C)=C[C@@H]1C[C@H](C)[C@H]2CC[C@H](C)[C@H]3C(=O)C(O)=C(C)C(=O)[C@]123`, the total growth inhibition concentration (TGI) in [1], in [2], in [10], in test [3], in test [4] and in test [6] was greater than 100 µM throughout. In addition, the concentration for total growth inhibition (TGI) in test [7], in test [8] and in test [9] was greater than 100 µM throughout.

In the case of `CC(=O)Nc1ccc(C(=O)NN2C(=O)CSC2c2ccccc2)cc1` (centres undefined), the TGI in [1], in [2], in test [3], in test [4], in test [5] and in [6] was greater than 100 µM each time. For the same compound, the concentration for total growth inhibition (TGI) in test [7], in [8] and in test [9] was greater than 100 µM throughout.

With `COc1cc(COC(=O)NC(Cc2cccs2)C(=O)O)c([N+](=O)[O-])cc1OC` (centres undefined), the TGI in test [1], in test [2], in [3], in test [4], in [6] and in test [7] was greater than 100 µM each time. The TGI in test [9] was greater than 100 µM.

As to `COC(=O)C1=C(C)C(=O)C2(CCCCCC2C(=O)OC)C1` (centres undefined), the TGI in [2], in test [10], in test [3], in test [4], in [5] and in [6] was greater than 100 µM throughout. Further, the TGI in [7], in test [8] and in test [9] was greater than 100 µM in each case.

As for `Cc1cccc2c1Oc1ncccc1C2NC(=O)CN(C)C` (centres undefined), the TGI in test [2], in [10], in test [3], in test [4], in [5] and in test [6] was greater than 10 µM each time. Further, the TGI in [8] and in test [9] was greater than 10 µM each time.

For `CCOP(=O)(OCC)/C(C#N)=C(\C)c1ccco1`, the TGI in [1], in test [2], in [3], in test [4], in [5] and in [6] was greater than 10 µM in each case. Besides, the TGI in [7], in test [8] and in [9] was greater than 10 µM throughout.

Take `CC(=O)CC(=O)N1CCOC1=O`: the TGI in [1], in [2], in test [3], in test [4], in [5] and in [6] was greater than 10 µM each time. For the same compound, the TGI in test [7], in test [8] and in test [9] was greater than 10 µM throughout.

For `COc1ccc(NC(=S)Nc2cccc(C)n2)cc1`, the TGI in [1], in [2], in test [4], in test [5], in test [7] and in test [8] was greater than 100 µM in each case. This compound registered a TGI in [9] greater than 100 µM.

With `CCc1n[nH]c(=O)n1-c1ccncc1`, the TGI in [1], in test [2], in [10], in test [3], in [4] and in test [6] was greater than 100 µM each time. Further, the TGI in test [7], in test [8] and in [9] was greater than 100 µM each time.
